According to the NIST ThermoML archive (doi:10.1016/j.tca.2013.07.012):
Numbers after ± are expanded uncertainties.

Test: xn = mol fraction of the nth substance listed
Conditions: 101 kPa, Liquid, Vibrating tube method

## OCC(O)CO [glycerol] + O
298.15 K, x1 = 0.00439
  mass density: 1002.17 ± 0.11 kg/m3
298.15 K, x1 = 0.0051
  mass density: 1002.98 ± 0.11 kg/m3
298.15 K, x1 = 0.00657
  mass density: 1004.67 ± 0.11 kg/m3
298.15 K, x1 = 0.01072
  mass density: 1009.34 ± 0.11 kg/m3
298.15 K, x1 = 0.01633
  mass density: 1015.48 ± 0.11 kg/m3
298.15 K, x1 = 0.03504
  mass density: 1034.47 ± 0.11 kg/m3
298.15 K, x1 = 0.05086
  mass density: 1049.05 ± 0.12 kg/m3
298.15 K, x1 = 0.06775
  mass density: 1063.23 ± 0.12 kg/m3
298.15 K, x1 = 0.1127
  mass density: 1095.24 ± 0.14 kg/m3
298.15 K, x1 = 0.1559
  mass density: 1119.87 ± 0.15 kg/m3
298.15 K, x1 = 0.206
  mass density: 1142.86 ± 0.16 kg/m3
298.15 K, x1 = 0.256
  mass density: 1161.34 ± 0.16 kg/m3
298.15 K, x1 = 0.3311
  mass density: 1183 ± 0.17 kg/m3
298.15 K, x1 = 0.4012
  mass density: 1198.45 ± 0.17 kg/m3
298.15 K, x1 = 0.4907
  mass density: 1213.75 ± 0.18 kg/m3
298.15 K, x1 = 0.5828
  mass density: 1225.65 ± 0.17 kg/m3
298.15 K, x1 = 0.6857
  mass density: 1236.32 ± 0.18 kg/m3
298.15 K, x1 = 0.7494
  mass density: 1241.81 ± 0.19 kg/m3
298.15 K, x1 = 0.8101
  mass density: 1246.48 ± 0.19 kg/m3
298.15 K, x1 = 0.8528
  mass density: 1249.4 ± 0.2 kg/m3
298.15 K, x1 = 0.882
  mass density: 1251.36 ± 0.2 kg/m3
298.15 K, x1 = 0.9143
  mass density: 1253.31 ± 0.21 kg/m3
298.15 K, x1 = 0.9408
  mass density: 1254.8 ± 0.21 kg/m3
298.15 K, x1 = 0.9578
  mass density: 1255.73 ± 0.21 kg/m3
298.15 K, x1 = 0.9792
  mass density: 1256.89 ± 0.21 kg/m3
298.15 K, x1 = 0.9895
  mass density: 1257.41 ± 0.22 kg/m3
298.15 K, x1 = 1
  mass density: 1257.91 ± 0.22 kg/m3
308.15 K, x1 = 0.00209
  mass density: 996.42 ± 0.11 kg/m3
308.15 K, x1 = 0.00439
  mass density: 999.06 ± 0.11 kg/m3
308.15 K, x1 = 0.0051
  mass density: 999.87 ± 0.11 kg/m3
308.15 K, x1 = 0.00657
  mass density: 1001.52 ± 0.11 kg/m3
308.15 K, x1 = 0.01072
  mass density: 1006.11 ± 0.11 kg/m3
308.15 K, x1 = 0.01633
  mass density: 1012.13 ± 0.11 kg/m3
308.15 K, x1 = 0.03504
  mass density: 1030.74 ± 0.11 kg/m3
308.15 K, x1 = 0.05086
  mass density: 1045.04 ± 0.12 kg/m3
308.15 K, x1 = 0.06775
  mass density: 1058.94 ± 0.12 kg/m3
308.15 K, x1 = 0.1127
  mass density: 1090.4 ± 0.14 kg/m3
308.15 K, x1 = 0.1559
  mass density: 1114.62 ± 0.15 kg/m3
308.15 K, x1 = 0.206
  mass density: 1137.3 ± 0.16 kg/m3
308.15 K, x1 = 0.256
  mass density: 1155.48 ± 0.16 kg/m3
308.15 K, x1 = 0.3311
  mass density: 1177.16 ± 0.17 kg/m3
308.15 K, x1 = 0.4012
  mass density: 1192.55 ± 0.17 kg/m3
308.15 K, x1 = 0.4907
  mass density: 1207.7 ± 0.17 kg/m3
308.15 K, x1 = 0.5828
  mass density: 1219.6 ± 0.17 kg/m3
308.15 K, x1 = 0.6857
  mass density: 1230.18 ± 0.18 kg/m3
308.15 K, x1 = 0.7494
  mass density: 1235.6 ± 0.18 kg/m3
308.15 K, x1 = 0.8101
  mass density: 1240.19 ± 0.19 kg/m3
308.15 K, x1 = 0.8528
  mass density: 1243.15 ± 0.2 kg/m3
308.15 K, x1 = 0.882
  mass density: 1245.07 ± 0.2 kg/m3
308.15 K, x1 = 0.9143
  mass density: 1247.06 ± 0.2 kg/m3
308.15 K, x1 = 0.9408
  mass density: 1248.55 ± 0.21 kg/m3
308.15 K, x1 = 0.9578
  mass density: 1249.47 ± 0.21 kg/m3
308.15 K, x1 = 0.9792
  mass density: 1250.63 ± 0.21 kg/m3
308.15 K, x1 = 0.9895
  mass density: 1251.16 ± 0.21 kg/m3
308.15 K, x1 = 1
  mass density: 1251.66 ± 0.22 kg/m3
323.15 K, x1 = 0.00209
  mass density: 990.39 ± 0.11 kg/m3
323.15 K, x1 = 0.00439
  mass density: 992.99 ± 0.11 kg/m3
323.15 K, x1 = 0.0051
  mass density: 993.77 ± 0.11 kg/m3
323.15 K, x1 = 0.00657
  mass density: 995.4 ± 0.11 kg/m3
323.15 K, x1 = 0.01072
  mass density: 999.9 ± 0.11 kg/m3
323.15 K, x1 = 0.01633
  mass density: 1005.81 ± 0.11 kg/m3
323.15 K, x1 = 0.03504
  mass density: 1024.15 ± 0.11 kg/m3
323.15 K, x1 = 0.05086
  mass density: 1038.23 ± 0.12 kg/m3
323.15 K, x1 = 0.06775
  mass density: 1051.86 ± 0.12 kg/m3
323.15 K, x1 = 0.1127
  mass density: 1082.82 ± 0.14 kg/m3
323.15 K, x1 = 0.1559
  mass density: 1106.34 ± 0.15 kg/m3
323.15 K, x1 = 0.206
  mass density: 1128.58 ± 0.15 kg/m3
323.15 K, x1 = 0.256
  mass density: 1146.57 ± 0.16 kg/m3
323.15 K, x1 = 0.3311
  mass density: 1168.09 ± 0.16 kg/m3
323.15 K, x1 = 0.4012
  mass density: 1183.35 ± 0.17 kg/m3
323.15 K, x1 = 0.4907
  mass density: 1198.19 ± 0.17 kg/m3
323.15 K, x1 = 0.5828
  mass density: 1210.22 ± 0.17 kg/m3
323.15 K, x1 = 0.6857
  mass density: 1220.77 ± 0.18 kg/m3
323.15 K, x1 = 0.7494
  mass density: 1226.23 ± 0.18 kg/m3
323.15 K, x1 = 0.8101
  mass density: 1230.76 ± 0.19 kg/m3
323.15 K, x1 = 0.8528
  mass density: 1233.67 ± 0.19 kg/m3
323.15 K, x1 = 0.882
  mass density: 1235.56 ± 0.2 kg/m3
323.15 K, x1 = 0.9143
  mass density: 1237.53 ± 0.2 kg/m3
323.15 K, x1 = 0.9408
  mass density: 1239.01 ± 0.2 kg/m3
323.15 K, x1 = 0.9578
  mass density: 1239.93 ± 0.21 kg/m3
323.15 K, x1 = 0.9792
  mass density: 1241.1 ± 0.21 kg/m3
323.15 K, x1 = 0.9895
  mass density: 1241.61 ± 0.21 kg/m3
323.15 K, x1 = 1
  mass density: 1242.11 ± 0.21 kg/m3
333.15 K, x1 = 0.00209
  mass density: 985.55 ± 0.11 kg/m3
333.15 K, x1 = 0.00439
  mass density: 988.13 ± 0.11 kg/m3
333.15 K, x1 = 0.0051
  mass density: 988.9 ± 0.11 kg/m3
333.15 K, x1 = 0.00657
  mass density: 990.52 ± 0.11 kg/m3
333.15 K, x1 = 0.01072
  mass density: 994.98 ± 0.11 kg/m3
333.15 K, x1 = 0.01633
  mass density: 1000.85 ± 0.11 kg/m3
333.15 K, x1 = 0.03504
  mass density: 1018.99 ± 0.11 kg/m3
333.15 K, x1 = 0.05086
  mass density: 1032.9 ± 0.12 kg/m3
333.15 K, x1 = 0.06775
  mass density: 1046.46 ± 0.12 kg/m3
333.15 K, x1 = 0.1127
  mass density: 1077.08 ± 0.14 kg/m3
333.15 K, x1 = 0.1559
  mass density: 1100.45 ± 0.14 kg/m3
333.15 K, x1 = 0.206
  mass density: 1122.53 ± 0.15 kg/m3
333.15 K, x1 = 0.256
  mass density: 1140.39 ± 0.16 kg/m3
333.15 K, x1 = 0.3311
  mass density: 1161.69 ± 0.16 kg/m3
333.15 K, x1 = 0.4012
  mass density: 1177 ± 0.16 kg/m3
333.15 K, x1 = 0.4907
  mass density: 1191.81 ± 0.17 kg/m3
333.15 K, x1 = 0.5828
  mass density: 1203.79 ± 0.17 kg/m3
333.15 K, x1 = 0.6857
  mass density: 1214.31 ± 0.17 kg/m3
333.15 K, x1 = 0.7494
  mass density: 1219.8 ± 0.18 kg/m3
333.15 K, x1 = 0.8101
  mass density: 1224.29 ± 0.19 kg/m3
333.15 K, x1 = 0.8528
  mass density: 1227.21 ± 0.19 kg/m3
333.15 K, x1 = 0.882
  mass density: 1229.08 ± 0.19 kg/m3
333.15 K, x1 = 0.9143
  mass density: 1231.07 ± 0.2 kg/m3
333.15 K, x1 = 0.9408
  mass density: 1232.59 ± 0.2 kg/m3
333.15 K, x1 = 0.9578
  mass density: 1233.52 ± 0.2 kg/m3
333.15 K, x1 = 0.9792
  mass density: 1234.68 ± 0.21 kg/m3
333.15 K, x1 = 0.9895
  mass density: 1235.2 ± 0.21 kg/m3
333.15 K, x1 = 1
  mass density: 1235.71 ± 0.21 kg/m3
348.15 K, x1 = 0.00209
  mass density: 977.18 ± 0.11 kg/m3
348.15 K, x1 = 0.00439
  mass density: 979.74 ± 0.11 kg/m3
348.15 K, x1 = 0.0051
  mass density: 980.52 ± 0.11 kg/m3
348.15 K, x1 = 0.00657
  mass density: 982.12 ± 0.11 kg/m3
348.15 K, x1 = 0.01072
  mass density: 986.55 ± 0.11 kg/m3
348.15 K, x1 = 0.01633
  mass density: 992.29 ± 0.11 kg/m3
348.15 K, x1 = 0.03504
  mass density: 1010.23 ± 0.11 kg/m3
348.15 K, x1 = 0.05086
  mass density: 1024.05 ± 0.12 kg/m3
348.15 K, x1 = 0.06775
  mass density: 1037.5 ± 0.12 kg/m3
348.15 K, x1 = 0.1127
  mass density: 1067.8 ± 0.14 kg/m3
348.15 K, x1 = 0.1559
  mass density: 1090.81 ± 0.14 kg/m3
348.15 K, x1 = 0.206
  mass density: 1112.88 ± 0.15 kg/m3
348.15 K, x1 = 0.256
  mass density: 1130.45 ± 0.15 kg/m3
348.15 K, x1 = 0.3311
  mass density: 1151.47 ± 0.16 kg/m3
348.15 K, x1 = 0.4012
  mass density: 1166.73 ± 0.16 kg/m3
348.15 K, x1 = 0.4907
  mass density: 1181.85 ± 0.17 kg/m3
348.15 K, x1 = 0.5828
  mass density: 1193.86 ± 0.17 kg/m3
348.15 K, x1 = 0.6857
  mass density: 1204.27 ± 0.17 kg/m3
348.15 K, x1 = 0.7494
  mass density: 1209.73 ± 0.18 kg/m3
348.15 K, x1 = 0.8101
  mass density: 1214.26 ± 0.18 kg/m3
348.15 K, x1 = 0.8528
  mass density: 1217.21 ± 0.19 kg/m3
348.15 K, x1 = 0.882
  mass density: 1219.1 ± 0.19 kg/m3
348.15 K, x1 = 0.9143
  mass density: 1221.08 ± 0.19 kg/m3
348.15 K, x1 = 0.9408
  mass density: 1222.63 ± 0.2 kg/m3
348.15 K, x1 = 0.9578
  mass density: 1223.59 ± 0.2 kg/m3
348.15 K, x1 = 0.9792
  mass density: 1224.76 ± 0.2 kg/m3
348.15 K, x1 = 0.9895
  mass density: 1225.28 ± 0.2 kg/m3
348.15 K, x1 = 1
  mass density: 1225.79 ± 0.21 kg/m3
